In publication PMC6372667 (Experimental & Molecular Medicine, 2019):
Read-outs that look alike come from different tables or passages of the source.

Columns and labels:
[1] = molecular target: T1, BACE1 (human recombinant β-secretase) (Homo sapiens, UniProt P56817); experiment: In vitro BACE1 FRET enzyme assay; assay type: biochemical
Excerpt: (§1) BACE1 (human recombinant β-secretase) ([…]) and the BACE1 FRET (fluorescence resonance energy transfer) assay kit Red were purchased from ThermoFisher Scientific (P2985; Waltham, MA, USA). […] For the cell culture experiment, Dulbecco’s modified Eagle’s medium (DMEM), Opti-MEM, fetal bovine serum (FBS), and penicillin/streptomycin were obtained from Capricorn Scientific (Ebsdorfergrund, Germany). β-secretase inhibitor III (β-SI) was purchased from Calbiochem (Darmstadt, Germany). The protease inhibitor mixture (a mixture of AEBSF, pepstatin A, E-64, bestain, leupeptin, and aprotinin) was purchased from Sigma-Aldrich (St. Louis, MO, USA). Enzyme-linked immunosorbent assay (ELISA) kits for Aβ40 and Aβ42 were obtained from IBL (Kunma, Japan). All chemicals and solvents used were reagent grade, purchased from commercial sources, and used as received.
The BACE1 FRET assay was carried out according to the manufacturer’s instructions with slight modifications as previously described. The assay was performed in a […] black plate using a multi-pipette.

Electric eel AChE [2] = molecular target: T2, Electric eel AChE (Electrophorus electricus, UniProt O42275); experiment: In vitro cholinesterase enzyme assay (Ellman), AChE; assay type: biochemical
T2 construct: purchased Sigma-Aldrich Co
T2 sequence (O42275 24-633): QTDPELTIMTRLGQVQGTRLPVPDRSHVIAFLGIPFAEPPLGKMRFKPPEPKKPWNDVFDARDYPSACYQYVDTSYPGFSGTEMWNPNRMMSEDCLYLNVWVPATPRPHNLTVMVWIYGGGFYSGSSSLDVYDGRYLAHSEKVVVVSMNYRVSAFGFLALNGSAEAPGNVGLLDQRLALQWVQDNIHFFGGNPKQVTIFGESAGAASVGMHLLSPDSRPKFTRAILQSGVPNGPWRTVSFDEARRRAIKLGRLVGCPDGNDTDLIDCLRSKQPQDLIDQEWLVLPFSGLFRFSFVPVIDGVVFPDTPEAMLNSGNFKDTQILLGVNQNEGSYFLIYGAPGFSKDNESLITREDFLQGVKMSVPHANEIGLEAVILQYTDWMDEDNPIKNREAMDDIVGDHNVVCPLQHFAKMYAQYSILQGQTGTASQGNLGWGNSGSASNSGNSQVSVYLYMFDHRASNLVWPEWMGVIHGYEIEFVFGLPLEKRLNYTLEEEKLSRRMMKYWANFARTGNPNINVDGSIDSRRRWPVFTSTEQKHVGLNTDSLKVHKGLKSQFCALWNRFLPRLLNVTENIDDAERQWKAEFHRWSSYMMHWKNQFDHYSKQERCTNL
Excerpt: as §1
(§2) The inhibitory activities of pterosin derivatives against cholinesterases were measured using the method developed by Ellman et al.[32]. The reaction mixture contained 140 μL of sodium phosphate buffer (pH 8.0), 20 μL of test sample solution (final concentration of the compound 100 μM), and 20 μL of AChE or BChE solution, mixed and incubated for 15 min at room temperature. […] The reactions were initiated following the addition of 10 μL of DTNB and 10 μL of acetyl thiocholine iodide for the AChE assay or butyryl thiocholine chloride for the BChE assay in 96-well microplates, which were incubated for 15 min.

horse serum BChE [3] = molecular target: T3, horse serum BChE (Equus caballus, UniProt P81908); experiment: In vitro cholinesterase enzyme assay (Ellman), BChE; assay type: biochemical
T3 construct: horse serum BChE (EC 3.1.1.8); purchased Sigma-Aldrich Co; host or cells: horse serum
T3 sequence (P81908 whole entry): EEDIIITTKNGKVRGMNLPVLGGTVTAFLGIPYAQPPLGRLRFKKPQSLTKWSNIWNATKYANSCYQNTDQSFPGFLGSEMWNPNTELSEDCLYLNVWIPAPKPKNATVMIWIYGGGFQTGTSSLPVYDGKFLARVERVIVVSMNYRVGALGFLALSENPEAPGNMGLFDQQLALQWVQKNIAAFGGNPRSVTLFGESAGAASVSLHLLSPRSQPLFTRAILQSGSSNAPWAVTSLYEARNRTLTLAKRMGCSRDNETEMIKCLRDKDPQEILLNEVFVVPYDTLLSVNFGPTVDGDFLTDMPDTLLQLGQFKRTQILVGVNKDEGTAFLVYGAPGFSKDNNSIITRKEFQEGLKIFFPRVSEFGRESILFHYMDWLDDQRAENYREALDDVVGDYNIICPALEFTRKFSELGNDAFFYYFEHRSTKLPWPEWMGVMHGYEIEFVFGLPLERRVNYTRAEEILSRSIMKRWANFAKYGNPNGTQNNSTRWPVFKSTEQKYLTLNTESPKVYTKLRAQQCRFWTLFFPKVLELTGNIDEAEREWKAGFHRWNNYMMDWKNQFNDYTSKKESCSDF
Excerpt: as §1, §2

[4] = molecular target: T1, BACE1 (human recombinant β-secretase); experiment: Kinetic analysis of BACE1 inhibition (Dixon and Lineweaver−Burk plots); assay type: biochemical; settings: for Inhibition type BACE1: Dixon and Lineweaver−Burk plots
Experimental: (§3) The Ki was determined by interpretation of the Dixon plot, with the value of the x-axis intercept taken as −Ki.
Dixon plots for BACE1 inhibition by pterosin derivatives.
Dixon plots for BACE1 inhibition by pteroside derivatives.

Electric eel AChE [5] = molecular target: T2, Electric eel AChE; experiment: Kinetic analysis of AChE inhibition (Dixon and Lineweaver−Burk plots); assay type: biochemical; settings: for Inhibition type AChE: Dixon and Lineweaver−Burk plots
Experimental: as §3
Dixon plots for AChE inhibition by pterosin derivatives. (2S,3R)-Pterosin C (A), (2R,3R)-pterosin C (B), and (2R)-pterosin B (C) were tested in the presence of substrate concentrations of 0.1 mM (●), 0.3 mM (○), and 0.6 mM (▼). Lineweaver-Burk plots for AChE inhibition were generated with inhibitor concentrations of 0 µM (Δ), 4 µM (▼), 20 µM (○), and 100 µM (●) for (2S,3R)-pterosin C (D) and (2R,3R)-pterosin C (E); and 0 µM (Δ), 2 µM (▼), 10 µM (○), and 50 µM (●) for (2R)-pterosin B (F).
Dixon plots for AChE inhibition by pteroside derivatives. (2R)-pteroside B (A), (2R,3R)-pteroside C (B), and (3S)-pteroside D (C) were tested in the presence of substrate concentrations of 0.1 mM (●), 0.3 mM (○), and 0.6 mM (▼). Lineweaver-Burk plots for AChE inhibition were generated with inhibitor concentrations of 0 µM (Δ), 0.8 µM (▼), 4 µM (○), and 20 µM (●) for (2R)-pteroside B (D), (2R,3R)-pteroside C (E), and (3S)-pteroside D (F).

horse serum BChE [6] = molecular target: T3, horse serum BChE; experiment: Kinetic analysis of BChE inhibition (Dixon and Lineweaver−Burk plots); assay type: biochemical; settings: for Inhibition type BChE: Dixon and Lineweaver−Burk plots
Experimental: as §3
Dixon plots for BChE inhibition by pterosin derivatives. (2S,3R)-Pterosin C (A), (2R,3R)-pterosin C (B), and (2R)-pterosin B (C) were tested in the presence of substrate concentrations of 0.2 mM (●), 0.4 mM (○), and 0.8 mM (▼).
Dixon plots for BChE inhibition by pteroside derivatives. (2R)-pteroside B (A), (2R,3R)-pteroside C (B), and (3S)-pteroside D (C) were tested in the presence of substrate concentrations of 0.2 mM (●), 0.4 mM (○), and 0.8 mM (▼). Lineweaver-Burk plots for BChE inhibition were generated with inhibitor concentrations of 0 µM (Δ), 4 µM (▼), 20 µM (○), and 100 µM (●) for (2R)-pteroside B (D); 0 µM (Δ), 0.8 µM (▼), 4 µM (○), and 20 µM (●) for (2R,3R)-pteroside C (E) and (3S)-pteroside D (F).

in vitro = in vitro ADME; settings: for Papp at 4 h, 25 µg/mL: pig, PAMPA, read-out: PAMPA-BBB permeability Pe; for BBB permeation class: classified by Pe, given in words
Experimental: PAMPA (parallel artificial membrane permeation assay) was used as a high-throughput assay to predict BBB permeation. Porcine polar brain lipid (PBL) was used as an artificial membrane to predict BBB permeation. Initially, the test compound was dissolved in DMSO at 5 mg/mL. This compound stock solution (10 µL) was diluted 200-fold in a universal buffer at pH 7.4 and mixed with a multi 8-channel pipette to obtain the secondary stock solution (final concentration 25 µg/mL). The secondary stock solution (200 µL) was placed in the donor wells. The filter membrane was coated with PBL in dodecane (4 mL volume of 20 mg/mL PBL in dodecane), and 5 µL of BBB-1 lipid solution was spread on PBL by pipette. The acceptor well was filled with […] of Acceptor Sink Buffer. The acceptor filter plate was cautiously positioned on the donor plate to assemble a “sandwich” (comprising an aqueous acceptor, artificial lipid membrane and aqueous donor with test compound on the top, middle and bottom, respectively). The test compound diffuses from the donor well to the acceptor well through the lipid membrane. After 4 h of incubation at pH 7.4 and 25 °C, the concentration of the compound in the acceptor, donor, reference and blank wells was estimated with a UV plate reader, Epoch Microplate Spectrophotometer (BioTek Instruments, Inc., Winooski, VT, USA). […] Samples were analyzed in quadruplets, and the average of the four runs was reported. To monitor the consistency of the analysis set, quality control standards were run with each sample set.
PAMPA-BBB, an in vitro artificial membrane permeability assay for the BBB, is one of the most reliable physicochemical screening tools in the early stage discovery of CNS-targeted drugs. The PAMPA-BBB system models the transcellular passive diffusion of chemicals across the BBB and measures strictly passive transport mechanisms via an artificial lipid membrane on effective permeability (Pe, cm/s).

[7] = test system: SH-SY5Y human neuroblastoma; experiment: MTT cytotoxicity assay, SH-SY5Y; assay type: cell-based; settings: 24 h
Experimental: (§4) Cytotoxicity was assessed using the MTT assay. Briefly, the cells were seeded into a 96-well plate at a density of 1×10^5 cells per well in 100 µL of corresponding media and incubated at 37 °C in an incubator under 5% CO2 tension for 24 h. The culture media were then replaced with 100 µL of fresh serum-free media in the presence of varied concentrations of pterosin derivatives, and cells were incubated for an additional 24 h. The control was treated with an equal amount of DMSO present in the assay for a 5 mM concentration. Then, 100 µL of MTT solution (0.5 mg/mL in Phosphate Buffered Saline (PBS)) was added to each culture. To measure the proportion of surviving cells, the media were replaced with 100 µL of DMSO 2 h after the administration of MTT solution. The absorbance was measured at 570 nm using a spectrophotometric plate reader (Molecular Devices, Sunnyvale, CA, USA).

C6 rat glial cells = experiment: MTT cytotoxicity assay, C6; assay type: cell-based; settings: 24 h
Experimental: as §4

[8] = test system: NIH3T3 mouse embryo fibroblasts; experiment: MTT cytotoxicity assay, NIH3T3; assay type: cell-based; settings: 24 h
Experimental: as §4

B16F10 mouse melanoma = experiment: MTT cytotoxicity assay, B16F10; assay type: cell-based; settings: 24 h
Experimental: as §4

[9] = mean ± S.D. of three experiments
[10] = mean ± S.D. of three experiments, read-out: IC50 AChE
[11] = mean ± S.D. of three experiments, read-out: IC50 BChE
[12] = 4 h, pH 7.4, 25 °C, mean ± SD of quadruple experiments

T1 sequence (P56817 46-501): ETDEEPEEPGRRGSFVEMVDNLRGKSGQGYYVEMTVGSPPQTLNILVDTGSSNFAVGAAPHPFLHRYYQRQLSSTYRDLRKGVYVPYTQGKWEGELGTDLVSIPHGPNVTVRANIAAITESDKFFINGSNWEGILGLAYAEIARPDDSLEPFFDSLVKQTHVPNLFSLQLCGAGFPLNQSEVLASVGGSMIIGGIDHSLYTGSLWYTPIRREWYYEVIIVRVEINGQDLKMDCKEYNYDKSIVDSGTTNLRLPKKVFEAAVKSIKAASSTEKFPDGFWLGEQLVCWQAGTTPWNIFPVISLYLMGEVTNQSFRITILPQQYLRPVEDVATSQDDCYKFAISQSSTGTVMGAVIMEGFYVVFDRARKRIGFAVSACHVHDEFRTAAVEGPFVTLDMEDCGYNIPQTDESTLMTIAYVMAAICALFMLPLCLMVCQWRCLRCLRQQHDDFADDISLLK

| Compound | LD50 Based on MTT Assay, SY-SY5Y [7] | LD50 Based on MTT Assay, C6 (C6 rat glial cells) | LD50 Based on MTT Assay, NIH3T3 [8] | LD50 Based on MTT Assay, B16F10 (B16F10 mouse melanoma) | IC50 [1, 9] | IC50 (Electric eel AChE [2]; [10]) | IC50 (horse serum BChE [3]; [11]) | Papp at 4 h, 25 µg/mL (in vitro; [12]) | further results |
| --- | --- | --- | --- | --- | --- | --- | --- | --- | --- |
| Cc1cc2c(c(C)c1CCO)C(=O)[C@H](C)[C@H]2O [(2R,3R)-Pterosin C, (2R,3R)-pterosin C] | 719 ± 25 µM | 694 ± 9.7 µM | >5,000 µM | >5,000 µM | – | – | – | – | IC50 [1]: 26.2 ± 6.3 µM; IC50 (Electric eel AChE [2]): 23.2 ± 4.6 µM; IC50 (horse serum BChE [3]): 20.3 ± 0.88 µM; Ki [4]: 27.6 µM; Inhibition type BACE1 [4]: Mixed-type; Ki (Electric eel AChE [5]): 29.6 µM; Inhibition type AChE (Electric eel AChE [5]): Noncompetitive; Ki (horse serum BChE [6]): 4.77 µM; Inhibition type BChE (horse serum BChE [6]): Mixed-type; log Pe (in vitro): -5.70; Papp at 4 h, 25 µg/mL (in vitro; pH 7.4): 1.98 ± 0.17 ×10⁻⁶ cm/s |
| Cc1cc2c(c(C)c1CCO[C@@H]1O[C@H](CO)[C@@H](O)[C@H](O)[C@H]1O)C(=O)C(C)(C)C2 [Pteroside Z, pteroside Z] | 1,430 ± 210 µM | 2,130 ± 62 µM | >5,000 µM | >5,000 µM | 53.3 ± 1.2 µM | 24.1 ± 1.1 µM | 5.31 ± 0.19 µM | 0.61 ± 0.17 ×10⁻⁶ cm/s | – |
| Cc1cc2c(c(C)c1CCO)C(=O)[C@](C)(CO)C2 [(2S)-Pterosin A, (2S)-pterosin A] | 1,210 ± 110 µM | >5,000 µM | >5,000 µM | 522 ± 25 µM | > 125 µM | 56.7 ± 2.6 µM | 67.3 ± 3.3 µM | 6.26 ± 0.24 ×10⁻⁶ cm/s | IC50 BACE1 [1, 9]: inactive at the concentrations tested; log Pe (in vitro; PAMPA-BBB): -5.20; BBB permeation class (in vitro; PAMPA-BBB): high BBB permeation |
| Cc1cc2c(c(C)c1CCOC1OC(CO)C(O)C(O)C1O)C(=O)C(C)(C)C2O [(3S)-Pteroside D, (3S)-pteroside D] | 1,320 ± 86 µM | >5,000 µM | >5,000 µM | >5,000 µM | 10.7 ± 1.5 µM | 27.4 ± 1.2 µM | 19.3 ± 0.17 µM | – | Inhibition type BACE1 [4]: Mixed-type; Ki ([4]; determined by Dixon plot, read-out: Ki BACE1): 16.5 µM; Inhibition type AChE (Electric eel AChE [5]): Mixed-type; Ki (Electric eel AChE [5]; determined by Dixon plot, read-out: Ki AChE): 23.1 µM; Inhibition type BChE (horse serum BChE [6]): Mixed-type; Ki (horse serum BChE [6]; determined by Dixon plot, read-out: Ki BChE): 19.7 µM; BBB permeation class (in vitro; PAMPA-BBB): very low BBB permeability |
| Cc1cc2c(c(C)c1CCO[C@@H]1O[C@H](CO)[C@@H](O)[C@H](O)[C@H]1O)C(=O)[C@@H](C)[C@H]2O [(2S,3R)-Pteroside C, (2S,3R)-pteroside C] | 711 ± 35 µM | >5,000 µM | >5,000 µM | >5,000 µM | 28.9 ± 2.2 µM | 9.17 ± 0.82 µM | 13 ± 0.14 µM | 0.29 ± 0.34 ×10⁻⁶ cm/s | – |
| Cc1c(CCO[C@@H]2O[C@H](CO)[C@@H](O)[C@H](O)[C@H]2O)c(CO)cc2c1C(=O)[C@@H](C)C2 [(2S)-Pteroside P, (2S)-pteroside P] | 1,090 ± 99 µM | >5,000 µM | >5,000 µM | >5,000 µM | > 125 µM | 57.5 ± 3.2 µM | 33.2 ± 3 µM | – | IC50 BACE1 [1, 9]: inactive at the concentrations tested |
| Cc1cc2c(c(C)c1CCO)C(=O)C(C)(C)C2 [Pterosin Z, pterosin Z] | 495 ± 24 µM | 1,850 ± 65 µM | 553 ± 37 µM | 618 ± 71 µM | 80 ± 5.9 µM | – | – | – | IC50 (Electric eel AChE [2]): 46.5 ± 3.4 µM; IC50 (horse serum BChE [3]): 80.1 ± 6.8 µM |
| Cc1cc2c(c(C)c1CCO)C(=O)C(C)(COC1OC(CO)C(O)C(O)C1O)C2 [(2S)-Pteroside A2, (2S)-pteroside A2] | 1,010 ± 60 µM | >5,000 µM | >5,000 µM | >5,000 µM | 94.4 ± 4.5 µM | 39.3 ± 1.9 µM | 119 ± 2.5 µM | 0.54 ± 0.51 ×10⁻⁶ cm/s | – |
